For this experiment, the species on record is Rattus norvegicus. Put plainly: Compound was evaluated for percent inhibition of antiarrhythmic activity catalyzed by cytochrome P-450 UT-H in liver microsomes of rats. Type of experiment: functional. The following applies: dose or concentration not given here. (In general: Liver microsomes are a subcellular fraction often used to study metabolism.)

As usually defined, the inhibition is the change of the read-out against control, counted positive when it falls. A higher inhibition goes with a strong effect. As to `C1CCN2C[C@@H]3C[C@@H](CN4CCCC[C@@H]34)[C@H]2C1`, the inhibition was over 95%.
